Assay results: US20230203081A1, “LINCOSAMIDE ANTIBIOTICS AND USES THEREOF” (President and Fellows of Harvard College, priority 2020, published 2023)
≈ marks a conversion by molar mass, not a printed value.

Tested on: broad panel of different clinical isolates
Test: microbe, parasite or virus in culture
Assay type: cell-based
Procedure, shortened: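 Per CLSI, MICs by broth microdilution or agar dilution; strains other than streptococci and anaerobes were sub-cultured overnight at 35° C on blood agar, with a final broth inoculum of 5×10^5 CFU/mL.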

Compound: C[C@H]1c2cccc(O)c2C(=O)C2=C(O)[C@]3(O)C(=O)C(C(N)=O)=C(O)[C@@H](N(C)C)[C@@H]3[C@@H](O)[C@@H]21 [Doxycycline]
- MIC (Acinetobacter baumannii, A. baumannii HAV#651, Clinical): 0.125 µg/mL (≈ 0.281 µM)
- MIC (Acinetobacter baumannii, A. baumannii HAV#652 Clinical): 0.5 µg/mL (≈ 1.13 µM)
- MIC (Acinetobacter baumannii, A. baumannii HAV#653, Clinical): 0.125 µg/mL (≈ 0.281 µM)
- MIC (Acinetobacter baumannii, A. baumannii HAV#654, Clinical): < 0.06 µg/mL
- MIC (Acinetobacter baumannii, A. baumannii HAV#655, Clinical): 0.5 µg/mL (≈ 1.13 µM)
- MIC (Acinetobacter baumannii, A. baumannii HAV#656, Clinical): 32 µg/mL (≈ 72 µM)
- MIC (Acinetobacter baumannii, A. baumannii HAV#657, Clinical): 0.5 µg/mL (≈ 1.13 µM)
- MIC (Acinetobacter baumannii, A. baumannii HAV#658, Clinical): 0.06 µg/mL (≈ 0.135 µM)
- MIC (Acinetobacter baumannii, A. baumannii HAV#659, Clinical): 0.5 µg/mL (≈ 1.13 µM)
- MIC (Acinetobacter baumannii, A. baumannii HAV#660, Clinical): 1 µg/mL (≈ 2.25 µM)
- MIC (Acinetobacter baumannii, A. baumannii HAV#661, Clinical): 0.125 µg/mL (≈ 0.281 µM)
- MIC (Acinetobacter baumannii, A. baumannii HAV#662, Clinical): 0.25 µg/mL (≈ 0.563 µM)
- MIC (Acinetobacter baumannii, A. baumannii HAV#663, Clinical): 0.125 µg/mL (≈ 0.281 µM)
- MIC (Acinetobacter baumannii, A. baumannii HAV#664, Carbapenem R): 2 µg/mL (≈ 4.5 µM)
- MIC (Enterococcus faecalis, E. faecalis HAV#602, Clincal): 0.25 µg/mL (≈ 0.563 µM)
- MIC (Enterococcus faecalis, E. faecalis HAV#607, Clinical): 1 µg/mL (≈ 2.25 µM)
- MIC (Enterococcus faecalis, E. faecalis HAV#608, Clinical): 0.5 µg/mL (≈ 1.13 µM)
- MIC (Enterococcus faecalis, E. faecalis HAV#609, Clinical): 8 µg/mL (≈ 18 µM)
- MIC (Enterococcus faecalis, E. faecalis HAV#610, Clinical): 0.5 µg/mL (≈ 1.13 µM)
- MIC (Enterococcus faecalis, S. faecalis 5074, Line R): 64 µg/mL (≈ 144 µM)
- MIC (Enterococcus faecalis, VRE, E. faecalis HAV#251, Clinical VRE): 0.125 µg/mL (≈ 0.281 µM)
- MIC (Enterococcus faecalis, VRE, E. faecalis HAV#606, Clinical): 16 µg/mL (≈ 36 µM)
- MIC (Enterococcus faecium, E. faecium HAV#317, Clinical): 0.25 µg/mL (≈ 0.563 µM)
- MIC (Enterococcus faecium, E. faecium HAV#324, Clinical): 0.25 µg/mL (≈ 0.563 µM)
- MIC (Enterococcus faecium, E. faecium HAV#327, Clinical): 0.25 µg/mL (≈ 0.563 µM)
- MIC (Enterococcus faecium, E. faecium HAV#328, Clinical): 0.25 µg/mL (≈ 0.563 µM)
- MIC (Enterococcus faecium, E. faecium HAV#329, Clinical): 0.25 µg/mL (≈ 0.563 µM)
- MIC (Enterococcus faecium, VRE, E. faecium HAV#318, VanA): 4 µg/mL (≈ 9 µM)
- MIC (Enterococcus faecium, VRE, E. faecium HAV#319, Line R & Vanco R): 16 µg/mL (≈ 36 µM)
- MIC (Enterococcus faecium, VRE, E. faecium HAV#320, Clinical): > 128 µg/mL
- MIC (Escherichia coli, E. coli HAV#503, Clinical): 32 µg/mL (≈ 72 µM)
- MIC (Escherichia coli, E. coli HAV#511, Clinical): 2 µg/mL (≈ 4.5 µM)
- MIC (Escherichia coli, E. coli HAV#512, Clinical): 2 µg/mL (≈ 4.5 µM)
- MIC (Escherichia coli, E. coli HAV#513, Clinical): 32 µg/mL (≈ 72 µM)
- MIC (Escherichia coli, E. coli HAV#514, Clinical): 2 µg/mL (≈ 4.5 µM)
- MIC (Escherichia coli, E. coli HAV#516, ESBL-producing): 8 µg/mL (≈ 18 µM)
- MIC (Haemophilus influenzae, ATCC9007, H. influenzae HAV#376, ATCC-9007): 0.25 µg/mL (≈ 0.563 µM)
- MIC (Klebsiella pneumoniae, K. pneumoniae HAV#404, Clinical): 4 µg/mL (≈ 9 µM)
- MIC (Klebsiella pneumoniae, K. pneumoniae HAV#405, Clinical): 2 µg/mL (≈ 4.5 µM)
- MIC (Klebsiella pneumoniae, K. pneumoniae HAV#406, Clinical): 2 µg/mL (≈ 4.5 µM)
- MIC (Klebsiella pneumoniae, K. pneumoniae HAV#407, Clinical): 32 µg/mL (≈ 72 µM)
- MIC (Klebsiella pneumoniae, K. pneumoniae HAV#408, Clinical): 32 µg/mL (≈ 72 µM)
- MIC (Klebsiella pneumoniae, K. pneumoniae HAV#409, ESBL-producing): 16 µg/mL (≈ 36 µM)
- MIC (Staphylococcus aureus, MRSA, S. aureus HAV#0107, MRSA Col(Colindale, England)): 64 µg/mL (≈ 144 µM)
- MIC (Staphylococcus aureus, MRSA, S. aureus HAV#218, Line R): 16 µg/mL (≈ 36 µM)
- MIC (Staphylococcus aureus, MRSA, S. aureus HAV#220, Line R): 8 µg/mL (≈ 18 µM)
- MIC (Staphylococcus aureus, MSSA, S. aureus HAV#219, Line R): 1 µg/mL (≈ 2.25 µM)
- MIC (Staphylococcus aureus, S. aureus HAV#051, mecA, norA, spcl, ermA, aad1, aac6′-aph2″): 0.5 µg/mL (≈ 1.13 µM)
- MIC (Staphylococcus aureus, S. aureus HAV#052, mecA, norA, fosB, blaZ): 0.5 µg/mL (≈ 1.13 µM)
- MIC (Staphylococcus aureus, S. aureus HAV#053 mecA, norA, fosB): 0.5 µg/mL (≈ 1.13 µM)
- MIC (Staphylococcus aureus, S. aureus HAV#054, mecA, norA, spcl, aad1, fosB, ermA, aac6′-aph2″, blaZ): 2 µg/mL (≈ 4.5 µM)
- MIC (Staphylococcus aureus, S. aureus HAV#211, Clinical): 4 µg/mL (≈ 9 µM)
- MIC (Staphylococcus aureus, S. aureus HAV#212, Clinical): 0.25 µg/mL (≈ 0.563 µM)
- MIC (Staphylococcus aureus, S. aureus HAV#213, Clinical): 0.125 µg/mL (≈ 0.281 µM)
- MIC (Staphylococcus aureus, S. aureus HAV#214, Clinical): 0.25 µg/mL (≈ 0.563 µM)
- MIC (Staphylococcus aureus, S. aureus HAV#215, Clinical): 0.25 µg/mL (≈ 0.563 µM)
- MIC (Staphylococcus aureus, S. aureus HAV#216, Clinical, cfr): 0.25 µg/mL (≈ 0.563 µM)
- MIC (Staphylococcus aureus, S. aureus HAV#217, cfr): 4 µg/mL (≈ 9 µM)
- MIC (Staphylococcus aureus, VISA, S. aureus HAV#203, Clinical (VISA)): 8 µg/mL (≈ 18 µM)
- MIC (Staphylococcus epidermidis, S. epidermidis HAV# 275 Clinical, cfr): 1 µg/mL (≈ 2.25 µM)
- MIC (Staphylococcus epidermidis, S. epidermidis HAV# 276, cfr): 2 µg/mL (≈ 4.5 µM)
- MIC (Staphylococcus epidermidis, S. epidermidis HAV#277, Line R): 8 µg/mL (≈ 18 µM)
- MIC (Staphylococcus epidermidis, S. epidermidis HAV#278 Line R): 4 µg/mL (≈ 9 µM)
- MIC (Staphylococcus epidermidis, S. epidermidis HAV#279, Line R): 32 µg/mL (≈ 72 µM)
- MIC (Staphylococcus haemolyticus, S. haemolyticus 5052, Line R & Methicillin R): 4 µg/mL (≈ 9 µM)
- MIC (Streptococcus pneumoniae, ATCC700673, S. pneumoniae HAV#352, ATCC 700673, MDR): 4 µg/mL (≈ 9 µM)
- MIC (Streptococcus pneumoniae, ATCCBAA255, S. pneumoniae HAV#354, ATCC-BAA-255): 0.25 µg/mL (≈ 0.563 µM)
- MIC (Streptococcus pneumoniae, ATCCBAA334, S. pneumoniae HAV#353, ATCC-BAA-334): 0.25 µg/mL (≈ 0.563 µM)
- MIC (Streptococcus pneumoniae, S. pneumoniae HAV#356, Clinical): 2 µg/mL (≈ 4.5 µM)
- MIC (Streptococcus pneumoniae, S. pneumoniae HAV#358, Clinical): 0.25 µg/mL (≈ 0.563 µM)
